Assays:
Mu-type opioid receptor = Mu-type opioid receptor (Homo sapiens, UniProt P35372)
D(1A) dopamine receptor = D(1A) dopamine receptor (Homo sapiens, UniProt P21728)
Thromboxane A2 receptor = target: T1, Thromboxane A2 receptor (Homo sapiens, UniProt P21731)
T1 sequence (P21731 whole entry): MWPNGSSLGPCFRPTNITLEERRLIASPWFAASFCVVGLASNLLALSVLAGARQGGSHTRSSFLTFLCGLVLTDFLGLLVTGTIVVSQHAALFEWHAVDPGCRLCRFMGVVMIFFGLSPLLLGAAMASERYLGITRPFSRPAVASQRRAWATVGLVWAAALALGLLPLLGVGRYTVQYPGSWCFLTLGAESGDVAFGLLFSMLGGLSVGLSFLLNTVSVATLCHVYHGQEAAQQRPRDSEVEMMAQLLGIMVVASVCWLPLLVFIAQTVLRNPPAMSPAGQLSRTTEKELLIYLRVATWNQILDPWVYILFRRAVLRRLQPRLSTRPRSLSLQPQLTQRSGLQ

[1] = target: Sodium-dependent dopamine transporter (Homo sapiens, UniProt Q01959)
[2] = target: T2, Muscarinic acetylcholine receptor M2 (Homo sapiens, UniProt P08172); assay type: functional, cell-based
T2 sequence (P08172 whole entry): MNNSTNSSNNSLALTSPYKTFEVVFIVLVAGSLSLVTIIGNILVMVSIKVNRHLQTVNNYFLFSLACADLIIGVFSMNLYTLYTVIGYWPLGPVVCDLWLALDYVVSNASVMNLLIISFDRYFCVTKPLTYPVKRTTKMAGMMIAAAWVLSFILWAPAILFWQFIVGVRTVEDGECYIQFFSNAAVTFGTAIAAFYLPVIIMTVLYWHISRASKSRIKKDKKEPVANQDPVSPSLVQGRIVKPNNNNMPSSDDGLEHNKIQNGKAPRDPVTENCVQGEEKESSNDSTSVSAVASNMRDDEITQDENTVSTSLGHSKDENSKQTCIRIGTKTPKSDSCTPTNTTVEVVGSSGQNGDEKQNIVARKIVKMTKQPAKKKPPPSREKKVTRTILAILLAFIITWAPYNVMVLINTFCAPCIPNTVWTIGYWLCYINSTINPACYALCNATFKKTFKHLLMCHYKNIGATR

[3] = target: T3, Alpha-1A adrenergic receptor (Homo sapiens, UniProt P35348)
T3 sequence (P35348 whole entry): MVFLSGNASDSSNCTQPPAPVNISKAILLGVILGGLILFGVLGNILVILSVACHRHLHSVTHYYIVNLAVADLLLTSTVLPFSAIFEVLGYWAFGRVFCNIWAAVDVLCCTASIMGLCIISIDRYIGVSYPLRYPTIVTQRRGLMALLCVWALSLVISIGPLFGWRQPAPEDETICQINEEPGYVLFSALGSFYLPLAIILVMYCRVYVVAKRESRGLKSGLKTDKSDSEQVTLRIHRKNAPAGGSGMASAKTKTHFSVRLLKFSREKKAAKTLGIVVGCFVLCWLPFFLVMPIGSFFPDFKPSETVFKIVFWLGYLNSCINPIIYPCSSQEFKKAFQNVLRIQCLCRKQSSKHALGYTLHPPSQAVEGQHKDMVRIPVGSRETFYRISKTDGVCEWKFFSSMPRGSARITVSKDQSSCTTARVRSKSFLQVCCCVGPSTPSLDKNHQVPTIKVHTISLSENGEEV

[4] = target: T4, Type-1 angiotensin II receptor (Homo sapiens, UniProt P30556)
T4 sequence (P30556 whole entry): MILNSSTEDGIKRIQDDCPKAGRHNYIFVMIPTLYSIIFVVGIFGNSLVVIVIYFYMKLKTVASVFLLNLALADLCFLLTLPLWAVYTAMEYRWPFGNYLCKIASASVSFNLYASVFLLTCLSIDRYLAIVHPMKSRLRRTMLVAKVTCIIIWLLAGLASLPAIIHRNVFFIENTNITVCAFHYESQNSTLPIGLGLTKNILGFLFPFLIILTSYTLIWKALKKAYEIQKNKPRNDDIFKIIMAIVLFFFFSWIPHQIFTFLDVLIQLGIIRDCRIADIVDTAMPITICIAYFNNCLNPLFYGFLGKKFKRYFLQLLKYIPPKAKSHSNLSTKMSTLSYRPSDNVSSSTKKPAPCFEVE

[5] = target: 5-hydroxytryptamine receptor 2B (Homo sapiens, UniProt P41595); assay type: functional, cell-based
[6] = target: Kappa-type opioid receptor (Homo sapiens, UniProt P41145)
[7] = target: T5, Gastrin/cholecystokinin type B receptor (Homo sapiens, UniProt P32239)
T5 sequence (P32239 whole entry): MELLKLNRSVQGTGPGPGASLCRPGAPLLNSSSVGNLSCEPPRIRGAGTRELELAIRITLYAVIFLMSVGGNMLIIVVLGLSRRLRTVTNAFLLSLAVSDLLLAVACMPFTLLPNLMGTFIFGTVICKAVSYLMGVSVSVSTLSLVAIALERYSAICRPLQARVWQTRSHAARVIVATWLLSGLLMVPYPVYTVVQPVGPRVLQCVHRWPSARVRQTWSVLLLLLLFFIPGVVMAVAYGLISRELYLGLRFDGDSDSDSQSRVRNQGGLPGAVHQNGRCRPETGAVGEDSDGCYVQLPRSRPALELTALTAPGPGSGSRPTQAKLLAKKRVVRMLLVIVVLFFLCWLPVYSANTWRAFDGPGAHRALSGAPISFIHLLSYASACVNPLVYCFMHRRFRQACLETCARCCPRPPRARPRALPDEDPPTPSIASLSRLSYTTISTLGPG

D(3) dopamine receptor = D(3) dopamine receptor (Homo sapiens, UniProt P35462)
[8] = target: Gamma-aminobutyric acid receptor subunit alpha-1 (Rattus norvegicus, UniProt P62813); assay type: functional
Further: assay procedure not described here.

Chain of Mu-type opioid receptor (P35372 whole entry): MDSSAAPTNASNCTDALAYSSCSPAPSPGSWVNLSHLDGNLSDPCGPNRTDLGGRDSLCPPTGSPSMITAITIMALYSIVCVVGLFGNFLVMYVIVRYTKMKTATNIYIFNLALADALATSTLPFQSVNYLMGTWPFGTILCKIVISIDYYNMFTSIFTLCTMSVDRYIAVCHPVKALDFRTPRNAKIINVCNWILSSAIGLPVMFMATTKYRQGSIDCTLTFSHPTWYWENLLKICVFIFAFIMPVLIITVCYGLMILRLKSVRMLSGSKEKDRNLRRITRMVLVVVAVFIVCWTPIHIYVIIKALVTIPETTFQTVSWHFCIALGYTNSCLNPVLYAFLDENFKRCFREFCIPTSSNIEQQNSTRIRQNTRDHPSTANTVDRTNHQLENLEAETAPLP
Chain of D(3) dopamine receptor (P35462 whole entry): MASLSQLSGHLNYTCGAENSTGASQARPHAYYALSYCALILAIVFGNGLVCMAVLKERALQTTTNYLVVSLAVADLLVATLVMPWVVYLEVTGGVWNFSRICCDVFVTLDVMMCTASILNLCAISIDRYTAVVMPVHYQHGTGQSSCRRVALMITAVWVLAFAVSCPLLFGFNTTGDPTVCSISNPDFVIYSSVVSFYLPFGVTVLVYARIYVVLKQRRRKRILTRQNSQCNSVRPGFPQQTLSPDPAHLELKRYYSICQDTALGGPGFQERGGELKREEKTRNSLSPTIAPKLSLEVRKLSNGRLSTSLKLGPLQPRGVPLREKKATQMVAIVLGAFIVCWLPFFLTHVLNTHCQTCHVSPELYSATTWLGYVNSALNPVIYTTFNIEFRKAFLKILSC
Chain of D(1A) dopamine receptor (P21728 whole entry): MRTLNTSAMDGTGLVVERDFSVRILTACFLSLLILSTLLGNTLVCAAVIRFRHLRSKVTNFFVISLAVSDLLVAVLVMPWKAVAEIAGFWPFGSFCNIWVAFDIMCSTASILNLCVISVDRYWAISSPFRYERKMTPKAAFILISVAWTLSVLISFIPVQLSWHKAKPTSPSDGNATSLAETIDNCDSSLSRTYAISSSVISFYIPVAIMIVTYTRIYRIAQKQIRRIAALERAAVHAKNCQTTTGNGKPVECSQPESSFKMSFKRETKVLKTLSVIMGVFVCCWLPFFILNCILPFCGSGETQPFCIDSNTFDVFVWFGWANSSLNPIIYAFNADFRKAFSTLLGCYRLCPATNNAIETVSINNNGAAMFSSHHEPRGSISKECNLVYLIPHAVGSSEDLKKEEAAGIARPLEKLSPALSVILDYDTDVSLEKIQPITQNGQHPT
Chain of 5-hydroxytryptamine receptor 2B (P41595 whole entry): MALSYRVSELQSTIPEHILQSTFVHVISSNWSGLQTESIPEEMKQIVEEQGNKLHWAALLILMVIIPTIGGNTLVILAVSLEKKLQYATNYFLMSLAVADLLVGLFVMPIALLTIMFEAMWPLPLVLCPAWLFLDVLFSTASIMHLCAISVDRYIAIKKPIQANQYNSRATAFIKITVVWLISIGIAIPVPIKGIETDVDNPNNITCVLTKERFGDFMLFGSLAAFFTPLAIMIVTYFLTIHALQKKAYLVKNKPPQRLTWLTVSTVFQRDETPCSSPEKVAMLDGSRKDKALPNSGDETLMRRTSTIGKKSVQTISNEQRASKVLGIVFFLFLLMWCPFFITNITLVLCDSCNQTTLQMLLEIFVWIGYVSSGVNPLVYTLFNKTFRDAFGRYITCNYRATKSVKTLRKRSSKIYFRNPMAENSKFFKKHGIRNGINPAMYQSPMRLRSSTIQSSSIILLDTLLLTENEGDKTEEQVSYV
Chain of Kappa-type opioid receptor (P41145 whole entry): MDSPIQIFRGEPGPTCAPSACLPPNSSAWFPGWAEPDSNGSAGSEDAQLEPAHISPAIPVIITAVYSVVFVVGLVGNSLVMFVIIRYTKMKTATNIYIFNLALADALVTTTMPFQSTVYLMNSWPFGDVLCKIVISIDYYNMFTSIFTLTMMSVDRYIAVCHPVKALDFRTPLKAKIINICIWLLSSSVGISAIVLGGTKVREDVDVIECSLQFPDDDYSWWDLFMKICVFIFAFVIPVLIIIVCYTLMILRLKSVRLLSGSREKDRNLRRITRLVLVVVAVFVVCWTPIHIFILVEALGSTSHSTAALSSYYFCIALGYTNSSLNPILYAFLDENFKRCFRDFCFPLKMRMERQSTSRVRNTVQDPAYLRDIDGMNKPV
Chain of Sodium-dependent dopamine transporter (Q01959 whole entry): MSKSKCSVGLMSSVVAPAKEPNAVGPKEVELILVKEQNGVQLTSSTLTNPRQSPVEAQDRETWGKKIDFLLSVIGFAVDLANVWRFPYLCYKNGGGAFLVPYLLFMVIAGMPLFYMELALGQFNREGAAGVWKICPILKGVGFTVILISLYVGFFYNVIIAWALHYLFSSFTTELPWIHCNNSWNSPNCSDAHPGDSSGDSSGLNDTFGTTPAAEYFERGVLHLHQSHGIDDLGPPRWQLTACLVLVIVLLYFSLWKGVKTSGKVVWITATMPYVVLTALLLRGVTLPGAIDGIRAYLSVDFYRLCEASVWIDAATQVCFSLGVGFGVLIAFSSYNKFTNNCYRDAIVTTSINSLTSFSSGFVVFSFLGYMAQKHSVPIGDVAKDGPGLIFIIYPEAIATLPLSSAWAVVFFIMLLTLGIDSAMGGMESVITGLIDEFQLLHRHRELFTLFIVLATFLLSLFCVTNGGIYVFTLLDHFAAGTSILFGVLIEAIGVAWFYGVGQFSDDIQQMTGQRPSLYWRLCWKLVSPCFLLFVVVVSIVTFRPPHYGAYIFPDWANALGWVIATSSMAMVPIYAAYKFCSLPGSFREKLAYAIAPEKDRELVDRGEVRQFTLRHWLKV
Chain of Gamma-aminobutyric acid receptor subunit alpha-1 (P62813 whole entry): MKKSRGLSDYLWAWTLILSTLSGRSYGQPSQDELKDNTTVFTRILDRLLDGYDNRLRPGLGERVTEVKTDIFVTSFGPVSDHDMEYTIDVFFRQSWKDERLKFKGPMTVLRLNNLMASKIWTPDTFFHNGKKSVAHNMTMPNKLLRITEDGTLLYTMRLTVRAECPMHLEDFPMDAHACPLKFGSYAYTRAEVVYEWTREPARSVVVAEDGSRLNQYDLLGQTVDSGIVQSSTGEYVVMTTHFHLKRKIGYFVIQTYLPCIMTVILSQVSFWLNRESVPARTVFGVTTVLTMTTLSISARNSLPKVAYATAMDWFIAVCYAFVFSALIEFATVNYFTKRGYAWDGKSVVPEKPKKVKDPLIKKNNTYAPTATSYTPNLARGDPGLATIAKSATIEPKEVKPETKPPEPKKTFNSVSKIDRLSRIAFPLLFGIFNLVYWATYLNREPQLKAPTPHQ

How did the AC50 (Mu-type opioid receptor) turn out when `CN(C)c1ccc(C(=C2C=CC(=[N+](C)C)C=C2)c2ccc(N(C)C)cc2)cc1` [GENTIAN VIOLET] was run?
Its AC50 is 3.9 µM.

`Nc1ccc(S(N)(=O)=O)cc1` [SULFANILAMIDE] was tested. Which AC50 (D(1A) dopamine receptor) did it give?
The AC50 was > 30 µM.

For HYDROXOCOBALAMIN, which AC50 (Thromboxane A2 receptor) is on record?
Its AC50 is > 30 µM.

And the AC50 [1]?
The AC50 was > 30 µM.

What about the AC50 [2] of the same compound?
Its AC50 is > 30 µM.

And the AC50 [3]?
Its AC50 is > 30 µM.

What about the AC50 [4] of the same compound?
The AC50 was > 30 µM.

What about the AC50 [5] of the same compound?
The AC50 was > 30 µM.

And the AC50 [6]?
Its AC50 is > 30 µM.

What about the AC50 [7] of the same compound?
The AC50 was > 30 µM.

What about the AC50 (D(3) dopamine receptor) of the same compound?
The AC50 was > 30 µM.

What about the AC50 [8] of the same compound?
The AC50 was > 30 µM.
